{"source": "paper PMC6401629", "about": "“Lipid Nanoparticles-Encapsulated YF4: A Potential Therapeutic Oral Peptide Delivery System for Hypertension Treatment” (Frontiers in Pharmacology, 2019)", "key": {"[1]": {"test": "Pharmacokinetics after a single gavage administration", "assay_type": "in vivo", "conditions": "SD rats, single gavage 1.2 mg/kg, plasma, DAS 2.0, mean ± SD, n = 6", "description": "Six 8-week-old male SD rats with weight between 180 to 220 g were purchased from the Laboratory Animal Center of Sichuan University (Sichuan University, Chengdu, Sichuan, China). The animals were maintained under 12-hour dark and light cycles at 22℃ and free access to food and water. After a week of adaptation, these SD rats were admitted to experiments. Absorption of YF4 in SD rats following a single oral administration of YF4 was investigated. At the end of the experiment, the rats were sacrificed inside an isoflurane chamber to avoid unnecessary suffering. The experiments were approved and supervised by the State Key Laboratory of Biotherapy Animal Care and Use Committee (Sichuan University, Chengdu, Sichuan, China).\nSD rats were used to investigate the […] of YF4. Rats were chosed randomly for oral administration of free YF4 at the dose of 1.2 mg/kg (n=6), respectively. Before the experiment, all rats were fasted for 12 h with free access to water. Each rat was administered an oral volume of 0.5 mL/100 g. Approximate 200 μL of blood samples were collected from the orbit into a heparin zed centrifuge tube before and at 0.083, 0.25, 0.5, 0.75, 1, 1.5, 2, 3, 4, 6, 8, 12 h post-dosing. All blood samples were centrifuged at 3500 rpm (4 ℃) for 10 min. The plasma samples were collected and stored at -20 ℃ until analyzed by Drug and Statistics 2.0 (DAS 2.0) (Mathematical Pharmacology Professional Committee of China, Shanghai, China)."}, "[2]": {"tested_on": "spontaneously hypertensive rats (SHRs)", "test": "In vivo antihypertensive efficacy, tail-cuff blood pressure", "parameters": "species or system rat", "conditions": "single oral dose 5 mg/kg, 2 h after administration, n = 6", "quoted_text": "Twelve weeks old male spontaneously hypertensive rats (SHRs) with a circa weight between 250 and 320 g were purchased from Beijing Vital River Laboratory Animal Technology Co., Ltd. After a week of adaption, animals were admitted to experiments (six per group). […] The rats were free access to food and water. […] In this study, groups of rats were used for the oral administration of saline group, Captopril group vs. YF4 group, YF4 vs. YF4-NPs vs YF4-LNPs.\nSimultaneously, the captopril and the saline water were used as the positive control and control group, respectively. SHRs were randomly divided into three groups (n = 6). Control group were treated with 0.9% saline water, and the other groups were treated with captopril (5 mg/kg) or the same dose of YF4 dissolved in saline water. All rats were administered at a single oral dose.\nIn YF4-LNPs pharmacodynamics study, the SHRs were randomly divided into three groups (n = 6). Control group were treated with 0.9% saline water, the other groups of SHRs were treated withYF4 and YF4-LNPs. All the groups of rats were given the same dose at 0.8 mg/kg body weight. Blood pressure was indirectly recorded as described above. […] All the SBP were measured for three times to get the average value at each time point."}}, "note": "Residues, ends and D or L forms follow the SMILES beside them.", "data": [{"smiles": "CC(C)C[C@H](NC(=O)CNC(=O)[C@@H](N)Cc1ccc(O)cc1)C(=O)N[C@@H](Cc1ccccc1)C(=O)O", "note": "[YF4, Tyr-Gly-Leu-Phe] (H-YGLF-OH)", "values": [{"measurement": "Cmax", "setting": "[1]", "value": "15470 ± 3050", "unit": "ng/mL"}, {"measurement": "AUC(0-inf)", "setting": "[1]; male, rat, po", "value": "45400 ± 9420", "unit": "ng·h/mL"}, {"measurement": "CL/F", "setting": "[1]; male, rat, po, read-out: CLz/F (converted)", "value": 0.333, "unit": "mL/min/kg"}, {"measurement": "MRT", "setting": "[1]; male, rat, po, read-out: MRT(0-t)", "value": "3.17 ± 0.68", "unit": "h"}, {"measurement": "half-life", "setting": "[1]; male, rat, po, read-out: T1/2z (half-life) (converted)", "value": "2.91 ± 0.05", "unit": "h"}]}, {"smiles": "C[C@H](CS)C(=O)N1CCC[C@H]1C(=O)O", "note": "[captopril]", "values": [{"measurement": "blood pressure lowing (BPL) effect compared with saline group", "setting": "[2]", "value": 23.0, "unit": "mmHg"}]}]}
